The source of these data is patent US20240034735A1, “NOVEL COMPOUNDS” (AC Immune SA, priority 2022, published 2024).

pIC50: −log10 of the molar value. Like-named read-outs stand apart in the source and are kept apart here.

The subject of the assay is NLRP3 inflammasome pathway. In words: NLRP3 inflammasome pathway activation assay (IL-1β release, HTRF). In kind it is cell-based, Human. The note with it: for pIC50: IL-1β release, PMA-differentiated, LPS-primed cells; for inhibition of IL-1 beta release compared to the equivalent compounds in which Z1=C and Z2=N: human monocyte-like cells, MSU or Nigericin as activators, 8 vs 13, 11 vs 12. On the procedure: The following assays were used to determine the inhibitory activity of test compounds on the NLRP3 inflammasome pathway using common stimuli Nigericin (Invivogen) or monosodium urate crystals (MSU) (Invivogen).
Human monocyte-like cells were seeded at 25000 per well in a 384-well plate and were differentiated overnight into macrophages with 10 ng/ml PMA (Phorbol Myristate Acetate). The following day, medium containing 10 ng/ml LPS (Lipopolysaccharide) was added.
For IL-1β quantification, supernatants were analyzed using HTRF kit according to the manufacturer's instructions (Cisbio 62HIL1BPEH), Briefly, in a 384-well ProxiPlate™ microplate, 8 μl of sample was mixed, with 5 μl of Anti-IL1β Cryptate antibody (40×) and Anti-IL1β XL antibody (40×). Then, incubated overnight at RT. Reading was done using an EnVision Reader (PerkinElmer).
(In general: In TR-FRET formats the signal depends on donor and acceptor labels being close together.)

The mark [1] stands for this setting: Homo sapiens, stimulation with MSU 200 μg/ml for 3 h, read-out: IC50 Human monocyte-like cells MSU.
[2] abbreviates: Homo sapiens, stimulation with Nigericin 3.75 μM for 3 h, read-out: IC50 Human monocyte-like cells Nigericin.
[3] abbreviates: stimulation with MSU 200 μg/ml for 3 h, read-out: IC50 Human monocyte-like cells MSU.
Setting [4] is: stimulation with Nigericin 3.75 μM for 3 h, read-out: IC50 Human monocyte-like cells Nigericin.

The term pIC50 denotes −log10 of the IC50, conventionally taken in molar units. Regarding `CN1CCC[C@@H](Nc2nnc(-c3ccc(C(F)(F)F)cc3O)n3cccc23)C1` [Example 1, (R)-2-(1-((1-methylpiperidin-3-yl)amino)pyrrolo[1,2-d][1,2,4]triazin-4-yl)-5-(trifluoromethyl)phenol], the pIC50 by setting is: under setting [1], greater than 8.30; under setting [2], greater than 8.30. For the compound `CN1CCC[C@@H](Nc2nnc(-c3ccc(C(F)(F)F)cc3O)n3nccc23)C1` [Example 2, (R)-2-(4-((1-methylpiperidin-3-yl)amino)pyrazolo[1,5-d][1,2,4]triazin-7-yl)-5-(trifluoromethyl)phenol], the pIC50 under setting [1] is 7.70 to 8.30. `CN1CCC[C@@H](Nc2nnc(-c3ccc(OC(F)F)cc3)n3cccc23)C1` [Example 3, (R)-4-(4-(difluoromethoxy)phenyl)-N-(1-methylpiperidin-3-yl)pyrrolo[1,2-d][1,2,4]triazin-1-amine]: under setting [1], the negative-log IC50 (pIC50) is 7.70 to 8.30.

As for `CN1CCC[C@@H](Nc2nnc(-c3ccc(OC(F)(F)F)cc3)n3cccc23)C1` [Example 4, (R)-N-(1-methylpiperidin-3-yl)-4-(4-(trifluoromethoxy)phenyl)pyrrolo[1,2-d][1,2,4]triazin-1-amine], the negative-log IC50 (pIC50) reads like this: under setting [1], 7.00 to 7.70; under setting [2], 7.00 to 7.70. For `CN1CCC[C@@H](Nc2nnc(-c3ccc(Cl)cc3)n3ccnc23)C1` [Example 6, 5-(4-Chlorophenyl)-N-[(3R)-1-methyl-3-piperidyl]imidazo[1,2-d][1,2,4]triazin-8-amine], the pIC50 under setting [1] was 7.00 to 7.70. Regarding `CC1(O)CC(Oc2nnc(-c3ccc(C(F)(F)F)cc3O)n3cccc23)C1` (centres unmarked) [Example 8, 2-(1-((1s,3s)-3-hydroxy-3-methylcyclobutoxy)pyrrolo[1,2-d][1,2,4]triazin-4-yl)-5-(trifluoromethyl)phenol], the “inhibition of IL-1 beta release compared to the equivalent compounds in which Z1=C and Z2=N” value is given as “significantly increased inhibition”. Besides, the pIC50 under setting [1] is greater than 8.30. Under setting [2], the negative logarithm of the IC50 (pIC50) was 7.70 to 8.30. Turning to `CN1CC[C@@H](Nc2nnc(-c3ccc(Cl)cc3O)n3ccnc23)C1` [Example 9], under setting [1], the negative-log IC50 (pIC50) was 7.00 to 7.70. On to `C[C@]1(O)C[C@@H](Nc2nnc(-c3ccc(C(F)(F)F)cc3O)n3ccc(F)c23)C1` [Example 10, 2-(8-Fluoro-1-(((1s,3s)-3-hydroxy-3-methylcyclobutyl)amino)pyrrolo[1,2-d][1,2,4]triazin-4-yl)-5-(trifluoromethyl)phenol], for which the negative logarithm of the IC50 (pIC50) under setting [1] is greater than 8.30. Consider `C[C@]1(O)C[C@@H](Nc2nnc(-c3ccc(C(F)(F)F)cc3O)c3cccn23)C1` [Example 11, 2-(4-(((1s,3s)-3-hydroxy-3-methylcyclobutyl)-amino)pyrrolo[1,2-d][1,2,4]triazin-1-yl)-5-(trifluoromethyl)phenol], for which the “inhibition of IL-1 beta release compared to the equivalent compounds in which Z1=C and Z2=N” value is recorded as “significantly increased inhibition”. Under setting [1], the pIC50 was greater than 8.30. Besides, under setting [2], the negative-log IC50 (pIC50) is 7.70 to 8.30. With `C[C@]1(O)C[C@@H](Nc2nnc(-c3ccc(C(F)(F)F)cc3O)n3cccc23)C1` [Example 12, 2-(1-(((1s,3s)-3-hydroxy-3-methylcyclobutyl)amino)pyrrolo[1,2-d][1,2,4]triazin-4-yl)-5-(trifluoromethyl)phenol], the negative logarithm of the IC50 (pIC50) runs as follows: under setting [3], 7.70 to 8.30; under setting [4], 7.00 to 7.70. As to `C[C@]1(O)C[C@@H](Oc2nnc(-c3ccc(C(F)(F)F)cc3O)c3cccn23)C1` [Example 13, 2-(4-((1s,3s)-3-Hydroxy-3-methylcyclobutoxy)pyrrolo[1,2-d][1,2,4]triazin-1-yl)-5-(trifluoromethyl)phenol], the negative-log IC50 (pIC50) was 7.70 to 8.30 under setting [3] and 7.00 to 7.70 under setting [4]. For `CCN1CCC[C@@H](Nc2nnc(-c3ccc(Cl)cc3O)n3ccnc23)C1` [Example 15], the negative-log IC50 (pIC50) under setting [1] was greater than 8.30.
